The results in this text go back to US5080884A, “Hydrocarbylphenyl diaminodithiol radionuclide complexes and their use in imaging” (Medi-Physics, Inc., priority 1991, dated 1992).

Series [1] is described as follows: Biological distribution of Tc-99m complexes in rats (pentobarbital anesthesia). The note with it: average of 2 rats; for Blood, % Injected Dose/Gram Tissue / Brain, % Injected Dose/Gram Tissue / Heart, % Injected Dose/Gram Tissue: pentobarbital anesthesia; for Brain:Blood / Heart:Blood: ratio. It is filed as in vivo, Female Sprague-Dawley rats. On the procedure:
Distribution of the Tc-99m labeled compounds was evaluated in rats. Female Sprague-Dawley rats weighing 140 to 220 g (average 170 g) were anesthetized with sodium pentobarbital and were injected in a tail vein with from 0.05 to 10 mCi of the Tc-99m labeled complex in a volume of 0.2 to 0.5 ml. At least two rats were injected for each time point.
The animals were sacrificed at 5 and 30 minutes after injection and selected organs were removed; the tails were discharged to avoid interference from the injection site. The radioactivity in each organ was measured at a standard geometry with a […] sodium iodide scintillation detector adjusted for the 140 KeV emission of Tc-99m. The organs were also weighed to one hundredth of a gram and the activity was calculated as a percent of administered dose per gram.

Series [2] is described as follows: Electrophoresis of Tc-99m complex (NaH2PO4, pH 4.5). It is filed as physicochemical. Conditions: 0.05 M NaH2PO4, pH 4.5, 300 volts, 30 min.
[3] abbreviates: 5 min after i.v. (tail vein) injection.
Setting [4] is: 30 min after i.v. (tail vein) injection.

“Tc-99m complex of 2-(2-Butylthio-2-methylpropylamino)-1-(2-mercapto-2-methylpropylamino)-3-methylbenzene [Example 53]”: in series [1] (setting [3]), the “Blood, % Injected Dose/Gram Tissue” value is 0.76 % Injected Dose/Gram Tissue; the “Brain, % Injected Dose/Gram Tissue” value is given as 0.29 % Injected Dose/Gram Tissue; the “Heart, % Injected Dose/Gram Tissue” value is on record as 1.58 % Injected Dose/Gram Tissue. In series [1] (setting [4]), the “Blood, % Injected Dose/Gram Tissue” value is 0.41 % Injected Dose/Gram Tissue; the “Brain, % Injected Dose/Gram Tissue” value is reported as 0.29 % Injected Dose/Gram Tissue; the “Heart, % Injected Dose/Gram Tissue” value is on record as 0.85 % Injected Dose/Gram Tissue. In addition, in series [1] (5 min after i.v. injection), the “Brain:Blood” value amounted to 0.38 and the “Heart:Blood” value stood at 2.06. Moreover, in series [1] (30 min after i.v. injection), the “Brain:Blood” value is 0.71 and the “Heart:Blood” value is listed as 2.09. Moreover, the Electrophoresis entry in series [2] was “neutral”.
